Laboratory results as given in patent US20050250677A1, “Glycopeptide antibiotic derivatives” (priority 2002, published 2005).
Like-named read-outs stand apart in the source and are kept apart here.

What was measured:
BVDV-1 (strain PE515) = test: Anti-BVDV assay in MDBK cells (MTS); assay type: cell-based, bovine viral diarrhea virus
Experimental: Cells and viruses: Madin-Darby Bovine Kidney (MDBK) cells were maintained in Dulbecco's modified Eagle medium (DMEM) supplemented with BVDV-free 5% fetal calf serum (DMBM-FCS) at 37° C. in a humidified, 5% CO2 atmosphere. BVDV-1 (strain PE515) was used to assess the antiviral activity in MDBK cells. Vero cells (ATCC CCL81) were maintained in MEM medium supplemented with 10% inactivated calf serum, 1% L-glutamine and 0.3% bicarbonate.
Anti-BVDV assay: Ninety-six-well cell culture plates were seeded with MDBK cells in DMEM-FCS so that cells reached 24 hr later confluency. Then medium was removed and serial 5-fold dilutions of the test compounds were added in a total volume of 100 ul, after which the virus inoculum (100 ul) was added to each well. […] Uninfected cells and cells receiving virus without compound were included in each assay plate. After 5 days, medium was removed and 90 μt of DMEM-FCS and 10 ul of MTS/PMS solution (Promega) was added to each well. Following a 2 hr incubation period at 37° C. the optical density of the wells was read at 498 nm in a microplate reader.

VZV (wild-type strains) = test: Anti-VZV assay (wild-type strains): virus-induced cytopathicity in HEL cell cultures; assay type: cell-based, varicella-zoster virus; conditions: HEL cell cultures
HEL cells [1] = conditions: anti-VZV table
HEL cells [2] = conditions: read-out: CC50 (HEL); HEL cells; anti-VZV table
in vitro = conditions: human

With `CCCCCCCCCCN1CCN(C(=O)C2NC(=O)C3NC(=O)C(NC(=O)C4NC(=O)C5NC(=O)C(Cc6ccc(c(Cl)c6)Oc6cc4cc(c6O)Oc4ccc(cc4Cl)C3O)NC(=O)C(N)c3ccc(O)c(c3)Oc3cc(O)cc5c3)c3ccc(O)c(c3)-c3c(O)cc(O)cc32)CC1` (stereo not shown) [Compound 126] the “activity against BVDV” value (BVDV-1 (strain PE515)) was “activity”, the EC50 (BVDV-1 (strain PE515); MDBK cells) was 12 µM and the EC50 (VZV (wild-type strains); VZV strain OKA, read-out: EC50 VZV (OKA)) was 1 µM. For the same compound, the EC50 (VZV (wild-type strains); VZV strain YS, read-out: EC50 VZV (YS)) was 0.3 µM, the “MTC (HEL)” value (HEL cells [1]) was greater than 5 to 50 µM and the CC50 (HEL cells [2]) was greater than 50 µM. For the same compound, the “MTC (MDBK)” value (MDBK cells) was 60.

In the case of `COC(=O)C1NC(=O)C2NC(=O)C(NC(=O)C(N)c3cc(Oc4ccc(CC(NC(=O)OCc5ccccc5)C(=O)O)cc4Cl)c(O)c(c3)Oc3ccc(cc3Cl)C2O)c2ccc(O)c(c2)-c2c(O)cc(O)cc21` (stereo not shown) [Compound 169], the CC50 (in vitro) is reported as 50 µM, the EC50 (VZV (wild-type strains); Human alphaherpesvirus 3, VZV strain OKA, read-out: EC50 VZV (OKA)) is reported as 34 µM and the “MTC (HEL)” value (HEL cells [1]) is reported as greater than 200 µM.
